Legend:
ZIKV [1] = assay: Infectious virus particles in supernatants of ZIKV-infected human NPC cells, plaque assay; format: cell-based, Zika virus; settings: FIG. 13
Protocol: FIG. 13: Quantification of infectious virus particles in the supernatants of human NPC cells pre-treated with CH2213191 or vehicle-treated using a standard plaque assay in Vero cells. Data represent the mean+s.e.m. from three independent experiments. P values were determined by a one-way ANOVA followed by Tukey's post-hoc test.
HepG2 (ATCC, HB-8065), A549 (ATCC® CCL-185™), HeLa (ATCC, CCL-2) and Vero cells (African green monkey kidney) (ATCC, CCL-81) were grown in Dulbecco's Modified Eagle's medium (DMEM, GIBCO) supplemented with 10% fetal bovine serum, 100 IU/ml of penicillin and 100 ug/ml of streptomycin. HEK-293 cells (ATCC, CRL-1573) and SUM149 cells (Asterand Bioscience, Detroit, Mich.) were grown in DMEM/F12 (GIBCO) supplemented with 10% fetal bovine serum, 100 IU/ml of penicillin and 100 ug/ml of streptomycin. C6/36 mosquito cells from Aedes albopictus were used to generate viral stocks, and were cultured in L-15 medium (Leibovitz) (GIBCO) supplemented with 0.3% tryptose phosphate broth, 0.02% glutamine, 1% MEM non-essential amino acids solution and 10% fetal bovine serum. Human NPCs (Stem Cell Technologies, Catalog #70901) were grown using neural progenitor medium 2 (Stem Cell Technologies). […]

ZIKV [2] = assay: qPCR of ZIKV RNA in HepG2 cells treated before, during or after infection (viral entry step); format: cell-based, Zika virus; settings: HepG2, moi=3, pretreatment, adsorption or internalization, qPCR 2 hours after infection; FIG. 17
Protocol: FIG. 17: Q-PCR quantification of ZIKV RNA in HepG2 cells treated with CH223191 or DMSO (vehicle) before infection, during infection, or after the infection with ZIKV (moi=3). 2 h p.i., cells were harvested for RNA extraction and qPCR analysis to determine the level of ZIKV RNA. Data represent the mean+s.e.m. from three independent experiments. P values were determined by Student's t-test.
To investigate whether AHR inhibition interferes with the viral entry step, we treated HepG2 cells with CH223191 at different early time points of ZIKV infection (pretreatment before viral entry, during viral adsorption and during virus internalization) and quantified ZIKV by qPCR 2 hours after infection. We detected no effect of CH223191 at these early timepoints during ZIKV infection as determined by qPCR, showing that AHR contributes to later stages of ZIKV replication (FIG. 17).
RNA was extracted using the RNAeasy kit (Qiagen). cDNA was synthesized using the High-Capacity cDNA Reverse Transcription kit (Applied Biosystems) and qPCR was performed using TaqMan Fast Advanced Master Mix (Applied Biosystems). Gene expression was normalized to GAPDH. […] RNA pellets were resuspended in RNase-free water and quantified by spectrophotometry (NanoDrop—Thermo Scientific) and stored at −80° C. […] Quantification was compared with threshold cycle (Ct) value with a ZIKV plasmid standard curve.

[3] = tested on: DENV-1, DENV-2, DENV-3, DENV-4; assay: DENV plaque assay of supernatants of A549 cells; format: cell-based, dengue virus; settings: A549 pre-treated, moi=0.1, 24 h p.i.; FIGS. 63A-63D
Protocol: FIG. 62: AHR activation boosts DENV replication. A549 cells were pretreated with the indicated concentrations of I3S for 24 h and infected with DENV-2 (moi=0.1). 48 h p.i. supernatants were harvested for plaque assay.
FIGS. 63A-63D: AHR modulation affects DENV replication. Infectious virus particles in the supernatants of A549 cells pre-treated with CH2213191 and infected with DENV-1 (FIG. 63A), DENV-2 (FIG. 63B), DENV-3 (FIG. 63C) or DENV-4 (FIG. 63D) (moi=0.1). At 24 h p.i. supernatants were harvested for plaque assay.

Cc1ccccc1/N=N/c1ccc(NC(=O)c2ccnn2C)c(C)c1 [CH223191, 2-Methyl-2H-pyrazole-3-carboxylic Acid (2-methyl-4-o-tolylazo-phenyl)-amide]
ZIKV replication in NPCs cultures (ZIKV [1]): decreased
effect on ZIKV RNA at early timepoints of infection (ZIKV [2]): no effect
replication of the four DENV serotypes [3]: reduced

Reference: patent US20220323402A1, “TREATMENT, AMELIORATION OR PREVENTION OF A VIRAL INFECTION” (priority 2019, published 2022)
